Test results taken from patent publication US8962600B2, “Neuroprotective compounds and their use” (The Medical College of Wisconsin, Inc., priority 2009, dated 2015).

How the values were obtained:
[1] = system: BV2 microglial cells; test: LPS-induced iNOS activation (nitrite, Griess reagent) in BV2 microglial cells; assay type: cell-based, mouse; details: 30 min pretreatment
Experimental: Two cell models of neuroinflammation were used to evaluate the anti-neuroinflammatory property of diapocynin including the mouse BV2 microglial cell line, as well as primary microglia isolated from mouse brains. BV2 cells were obtained from the American Tissue Culture Collection. BV2 cells were maintained in RPMI containing 10% FBS and 100 units of pen/strep at 37° C. and 5% CO2. For treatments, RPMI containing 2% FBS and 100 units of pen/strep was used.
Inducible nitric oxide synthase (iNOS or NOS2) activation was assessed by measuring nitrite levels using Griess reagent in a 96-well format (70-72). Each well contained 40,000 BV2 cells or 100,000 primary microglia. BV2 cells were cultured in 150 μl of RPMI containing 10% FBS and pen/strep, and the primary microglia were cultured in DMEM-F12 containing 10% FBS, pen/strep, sodium pyruvate (S/P), Q, and NEAAs. One day after culturing, cells were replaced with 150 μl of their respective complete media containing only 2% FBS. Both cell types were pretreated with diapocynin (10 μM) and apocynin (100 μM) for 30 min before LPS stimulation (1 μg/ml LPS for BV2 cells and 100 ng/ml for primary microglia), and the plates were incubated at 37° C. After 24 hr at 37° C., 100 μl of supernatant were removed and placed into a new 96 well plate, to which 100 μl of Griess reagent were added. The plate was shaken on a plate shaker for 10 min before being read in a plate reader at 540 nm.
This example generally followed the cell culture, treatment, and analysis steps of Example 4 above.
Diapocynin diacetate (diapodiacetate or diapo diace) suppresses LPS-induced NOS-2 in BV2 microglial cells (FIG. 21). BV-2 cells were plated in 96 well plates, 40,000 cells per well, and treated in 150 μl of RPMI containing 2% heat inactivated FBS and penicillin/streptomycin. Diapo diacetate was used on the cells as a 30 min pretreatment, then LPS (1 μg/ml) was added. All treatments were allowed to incubate at 37° C. for 24 hr, starting from the addition of LPS. One hundred microliter aliquots of supernatant from each well were combined with 100 μl of Griess reagent (Sigma) in a 96-well plate and allowed to shake for 10 minutes before being read on the plate reader. The percent nitrite level for the treatments compared to the control was graphed.

[2] = system: dopaminergic neurons in substantia nigra; test: FLUORO-JADE B and tyrosine hydroxylase double labeling in substantia nigra; assay type: in vivo, C57BL/6 mice; details: MPTP- and diapocynin-treated mice; 7 days after final MPTP injection
Experimental: Six- to 8-week-old C57BL/6 mice weighing 24 to 28 g were housed in standard conditions of constant temperature (22±1° C.), humidity (relative, 30%), and a 12-h light/dark cycle. Mice were allowed free access to food and water. Use of the animals and protocol procedures were approved and supervised by the Committee on Animal Care at Iowa State University (Ames, Iowa). For neurodegeneration studies, mice either received diapocynin (300 mg/kg dose) by oral gavage for 1 day (pre-treatment before MPTP administration), 5 days (co-treatment with MPTP), or 7 days (post-treatment after MPTP).
FLUORO-JADE B® and tyrosine hydroxylase (TH) double-labeling was performed in substantia nigra sections, as described previously (58). In brief, 7 days after the final MPTP injection, mice were sacrificed and perfused with 4% PFA and post-fixed with PFA and 30% sucrose, respectively. Fixed brains were cut into 30 μm sections and kept in 30% sucrose-ethylene glycol solutions at −20° C. On the day of staining, sections were rinsed with PBS and incubated with anti-TH antibody (Millipore, mouse monoclonal, dilution 1;1600) followed by Alexa Fluor 568 donkey anti-mouse secondary antibody (Invitrogen). […] Sections were viewed under a Nikon inverted fluorescence microscope (model TE-2000U). […]

- EC50 ([1]; Mus musculus, BV-2 cells, LPS 1 μg/ml, Griess reagent, non-linear regression of dose response curve, read-out: EC50, block of LPS-induced iNOS activation (nitrite level)): 7.76 µM
SMILES: COc1cc(C(C)=O)cc(-c2cc(C(C)=O)cc(OC)c2O)c1O [diapocynin]
- attenuating LPS-induced iNOS activation, compared with apocynin 100 μM ([1]; BV2 cells, diapocynin 10 μM, LPS 1 μg/ml 24 hr): just as effective
- FLUORO-JADE B-positive cells in substantia nigra [2]: fewer
- TH-positive cells in substantia nigra [2]: increases
